Settings: Liquid, Vibrating tube method

CCCCCCCCCCCC [dodecane]
Settings | mass density [kg/m3]
313.09 K, 1022 kPa | 735.79
313.09 K, 2023 kPa | 736.6
313.09 K, 3017 kPa | 737.36
313.09 K, 4026 kPa | 738.14
313.09 K, 5023 kPa | 738.89
313.09 K, 6032 kPa | 739.66
313.09 K, 7011 kPa | 740.38
313.09 K, 8009 kPa | 741.15
313.09 K, 9026 kPa | 741.91
313.09 K, 10008 kPa | 742.66
313.09 K, 11022 kPa | 743.39
313.09 K, 12012 kPa | 744.09
313.09 K, 13019 kPa | 744.82
313.09 K, 14017 kPa | 745.55
313.09 K, 15025 kPa | 746.22
313.09 K, 16025 kPa | 746.91
313.09 K, 17015 kPa | 747.58
313.09 K, 18022 kPa | 748.26
313.09 K, 19025 kPa | 748.93
313.09 K, 20013 kPa | 749.59
313.09 K, 21015 kPa | 750.23
313.09 K, 22011 kPa | 750.9
313.09 K, 23021 kPa | 751.53
313.09 K, 24015 kPa | 752.21
313.09 K, 24354 kPa | 752.42
322.97 K, 1025 kPa | 728.33
322.97 K, 2028 kPa | 729.17
322.97 K, 3026 kPa | 729.97
322.97 K, 4034 kPa | 730.78
322.97 K, 5021 kPa | 731.59
322.97 K, 6017 kPa | 732.37
322.97 K, 7017 kPa | 733.17
322.97 K, 8041 kPa | 733.99
322.97 K, 9015 kPa | 734.73
322.97 K, 10016 kPa | 735.5
322.97 K, 11019 kPa | 736.28
322.97 K, 12011 kPa | 737.01
322.97 K, 13028 kPa | 737.78
322.97 K, 14041 kPa | 738.53
322.97 K, 14994 kPa | 739.22
322.97 K, 16027 kPa | 739.96
322.97 K, 17001 kPa | 740.64
322.97 K, 18015 kPa | 741.35
322.97 K, 19032 kPa | 742.07
322.97 K, 20004 kPa | 742.74
322.97 K, 21009 kPa | 743.43
322.97 K, 22023 kPa | 744.14
322.97 K, 23009 kPa | 744.8
322.97 K, 24013 kPa | 745.5
322.97 K, 24507 kPa | 745.83
332.8 K, 1023 kPa | 721.08
332.8 K, 2019 kPa | 721.96
332.8 K, 3022 kPa | 722.81
332.8 K, 4030 kPa | 723.69
332.8 K, 5026 kPa | 724.53
332.8 K, 6035 kPa | 725.36
332.8 K, 7014 kPa | 726.16
332.8 K, 8025 kPa | 727.03
332.8 K, 9017 kPa | 727.84
332.8 K, 10020 kPa | 728.67
332.8 K, 11023 kPa | 729.46
332.8 K, 12022 kPa | 730.26
332.8 K, 13004 kPa | 731.04
332.8 K, 14008 kPa | 731.81
332.8 K, 15018 kPa | 732.57
332.8 K, 16023 kPa | 733.35
332.8 K, 17014 kPa | 734.08
332.8 K, 18006 kPa | 734.82
332.8 K, 19024 kPa | 735.59
332.8 K, 20023 kPa | 736.32
332.8 K, 21009 kPa | 737.01
332.8 K, 22009 kPa | 737.73
332.8 K, 23018 kPa | 738.45
332.8 K, 24018 kPa | 739.17
332.8 K, 24665 kPa | 739.63
342.69 K, 1019 kPa | 713.8
342.69 K, 2025 kPa | 714.75
342.69 K, 3025 kPa | 715.67
342.69 K, 4014 kPa | 716.58
342.69 K, 5015 kPa | 717.47
342.69 K, 6017 kPa | 718.36
342.69 K, 7021 kPa | 719.25
342.69 K, 8007 kPa | 720.13
342.69 K, 9019 kPa | 721.03
342.69 K, 10018 kPa | 721.86
342.69 K, 11016 kPa | 722.71
342.69 K, 12013 kPa | 723.56
342.69 K, 13021 kPa | 724.39
342.69 K, 14020 kPa | 725.21
342.69 K, 15030 kPa | 726.04
342.69 K, 16024 kPa | 726.83
342.69 K, 17011 kPa | 727.58
342.69 K, 18025 kPa | 728.36
342.69 K, 19023 kPa | 729.15
342.69 K, 20013 kPa | 729.88
342.69 K, 21006 kPa | 730.67
342.69 K, 22021 kPa | 731.41
342.69 K, 23014 kPa | 732.15
342.69 K, 24013 kPa | 732.89
342.69 K, 24725 kPa | 733.44
352.51 K, 1021 kPa | 706.54
352.51 K, 2027 kPa | 707.55
352.51 K, 3013 kPa | 708.48
352.51 K, 4019 kPa | 709.46
352.51 K, 5027 kPa | 710.45
352.51 K, 6014 kPa | 711.35
352.51 K, 7020 kPa | 712.33
352.51 K, 8000 kPa | 713.23
352.51 K, 9024 kPa | 714.18
352.51 K, 10009 kPa | 715.07
352.51 K, 11022 kPa | 715.96
352.51 K, 12012 kPa | 716.84
352.51 K, 13026 kPa | 717.71
352.51 K, 14017 kPa | 718.6
352.51 K, 15021 kPa | 719.45
352.51 K, 16022 kPa | 720.3
352.51 K, 17012 kPa | 721.08
352.51 K, 18027 kPa | 721.95
352.51 K, 19013 kPa | 722.74
352.51 K, 20028 kPa | 723.53
352.51 K, 21021 kPa | 724.33
352.51 K, 22023 kPa | 725.14
352.51 K, 23008 kPa | 725.88
352.51 K, 24020 kPa | 726.65
352.51 K, 24813 kPa | 727.31
362.29 K, 1015 kPa | 699.21
362.29 K, 2020 kPa | 700.31
362.29 K, 3015 kPa | 701.33
362.29 K, 4012 kPa | 702.34
362.29 K, 5029 kPa | 703.4
362.29 K, 6009 kPa | 704.36
362.29 K, 7029 kPa | 705.38
362.29 K, 8013 kPa | 706.3
362.29 K, 9012 kPa | 707.31
362.29 K, 10038 kPa | 708.31
362.29 K, 11027 kPa | 709.22
362.29 K, 12009 kPa | 710.09
362.29 K, 13007 kPa | 711.04
362.29 K, 14015 kPa | 711.96
362.29 K, 15008 kPa | 712.81
362.29 K, 16034 kPa | 713.71
362.29 K, 17030 kPa | 714.59
362.29 K, 18011 kPa | 715.43
362.29 K, 19021 kPa | 716.29
362.29 K, 20007 kPa | 717.15
362.29 K, 21017 kPa | 717.94
362.29 K, 22032 kPa | 718.77
362.29 K, 23002 kPa | 719.6
362.29 K, 24005 kPa | 720.38
362.29 K, 24809 kPa | 721.05

From the NIST ThermoML archive (doi:10.1016/j.fluid.2007.04.023)
